Data on two molecules can be found in patent publication US5849759A, “Naphthyl-substituted benzimidazole derivatives as anti-coagulants” (Berlex Laboratories, Inc., priority 1995, dated 1998).

Where a SMILES comes first, the peptide text is derived from it. [ ]: non-standard residue; d: D form. The star is where a group is joined. pNA = O=[N+]([O-])c1ccc(N*)cc1

The target of assay [1] is T1, Human thrombin (factor IIa) (Homo sapiens, UniProt P00734).
T1 construct: Human thrombin stock solution; purchased Enzyme Research Lab
Description: In vitro chromogenic assay for thrombin. Type of assay: biochemical. As to conditions: substrate concentration stated equal to Km under present assay conditions; pH 7.5, ambient temperature; read-out: Km (S2302). Here is the method: (§1) The activities were determined as an initial rate of cleavage of the peptide p-nitroanilide by the enzyme. The cleavage product, p-nitroaniline, absorbs at 405 nm with a molar extinction coefficient of 9920M^-1 cm^-1.
(§2) 50 mM TrisHCl, 150 mM NaCl, 2.5 mM CaCl2, and 0.1% polyethylene glycol 6000, pH 7.5.
2. Human thrombin stock solution: Stored at -80° C. (working solution (2X): 1200 ng/mL or 40 nM in assay buffer, prepare prior to use).
2. S2302 (Thrombin assay) stock solution: 10 mM in dH2 O, stored at 4° C. (working solution (4X): 1200 μM in assay buffer).
Assays were performed in 96-well microtiter plates in a total volume of 200 μl. […] Concentrations of the standard inhibitor compound in the assay were from 5 μM to 0.021 μM in 1 to 3 dilution. Concentration of the test compounds in the assay typically were from 10 μM to 0.041 μM in 1 to 3 dilution. For potent test compounds, the concentrations used in the factor Xa assay were further diluted 100 fold (100 nM to 0.41 nM) or 1000 fold (10 nM to 0.041 nM). […]
(§3) The enzyme kinetics were measured at 405 nm, at 10 seconds interval, for five minutes in a THERMOmax plate reader at ambient temperature.
(§4) Enzyme rates were calculated as mOD/min based on the first two minutes readings. The IC50 values were determined by fitting the data to the log-logit equation (linear) or the Morrison equation (non-linear) with an EXCEL spread-sheet. […]

The target of assay [2] is T2, Human tissue plasminogen activator (tPA) (Two chains, Sigma) (Homo sapiens, UniProt P00750).
T2 construct: purchased Sigma
T2 sequence (P00750 311-562 limits assumed): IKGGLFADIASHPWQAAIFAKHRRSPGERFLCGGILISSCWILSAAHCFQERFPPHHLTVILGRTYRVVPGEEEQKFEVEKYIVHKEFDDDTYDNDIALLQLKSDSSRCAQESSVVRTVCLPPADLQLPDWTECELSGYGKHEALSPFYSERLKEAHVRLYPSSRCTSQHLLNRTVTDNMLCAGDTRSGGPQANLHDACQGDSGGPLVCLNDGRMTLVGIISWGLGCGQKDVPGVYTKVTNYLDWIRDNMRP
T2 sequence (P00750 36-310 partner limits assumed): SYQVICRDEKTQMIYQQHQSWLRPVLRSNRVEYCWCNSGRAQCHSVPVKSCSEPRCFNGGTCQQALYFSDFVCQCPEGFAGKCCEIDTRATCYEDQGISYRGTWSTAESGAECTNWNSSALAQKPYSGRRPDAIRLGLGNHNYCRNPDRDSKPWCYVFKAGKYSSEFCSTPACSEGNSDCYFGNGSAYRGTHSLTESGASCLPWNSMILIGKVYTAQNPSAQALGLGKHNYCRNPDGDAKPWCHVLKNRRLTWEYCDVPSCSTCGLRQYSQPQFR
In words: In vitro chromogenic assay for tissue plasminogen activator. As to conditions: substrate concentration stated equal to Km under present assay conditions; pH 7.5, ambient temperature; read-out: Km (S2288). In kind it is biochemical. Here is the method:
as §1, §2
3. Human tissue plasminogen activator (tPA) (Two chains, Sigma) stock solution: 1 mg/mL, stored at -80° C. (working solution (2X): 1361 ng/mL in assay buffer, prepare prior to use).
3. S2288 (tPA assay) stock solution: 10 mM in dH2 O, stored at 4° C. (working solution (4X): 1484 μM in assay buffer). (All substrate working solutions were prepared on assay day […].)
Assays were performed in 96-well microtiter plates in a total volume of 200 μl. […] Concentrations of the standard inhibitor compound in the assay were from 5 μM to 0.021 μM in 1 to 3 dilution. Concentration of the test compounds in the assay typically were from 10 μM to 0.041 μM in 1 to 3 dilution. […]
as §3, §4

By Km is commonly meant the substrate concentration at which the rate is half of its maximum. Take `N=C(N)NCCC[C@H](NC(=O)[C@H](Cc1ccccc1)NC(=O)[C@H]1CCCN1)C(=O)Nc1ccc([N+](=O)[O-])cc1` [S2302] (H-[dP]-Phe-Arg-pNA): the Km in assay [1] came to 300 µM.

On to `CC[C@@H](C)[C@@H](N)C(=O)N1CCC[C@H]1C(=O)N[C@@H](CCCN=C(N)N)C(=O)Nc1ccc([N+](=O)[O-])cc1` [S2288] (H-[dI]-Pro-Arg-pNA), for which the Michaelis-Menten constant (Km) in assay [2] was 371 µM.
